In patent publication US9862762B2, “Monoclonal antibodies which bind human periostin” (MEDIMMUNE, LLC, priority 2014, dated 2018):
Values joined by “and” are separate entries in the source; they are usually repeats but may differ in a detail not shown here. Equal values may be shown once.

Tests used:
[1] = tested on: EPIAIRWAY tissue (normal and asthmatic lung epithelium); assay: Periostin levels in IL-13 stimulated […] tissue models; type: cell-based, human; conditions: stimulation with 50 ng/mL IL-13 for 48 hours (FIG. 6)
Experimental: FIG. 6: Periostin levels in IL-13 Stimulated […]™ Models (Normal and Asthmatic Lung Epithelium). Detection of periostin levels in […]™ tissue obtained from either normal healthy individuals or from asthma patients each receiving different treatments: Advair only; oral and inhaled steroids; no medication; or albuterol only. Periostin levels were determined using the biotin/streptavidin-HRP sandwich ELISA assay using 4B4.B11 as the capture antibody and biotinylated 7B5.C4 as the detection antibody. Samples receiving steroid were pre-treated for 6 hrs with 100 nM budesonide. Samples were either unstimulated or stimulated with 50 ng/mL IL-13±budesonide for 48 hours. Periostin levels increase following stimulation with IL-13. This increase is reduced with steroid treatment.
The assay provided in this disclosure was further used to measure periostin levels in the […]™ tissue model. EpiAirway tissue models were obtained from MatTek corporation. These tissues are a 3-D model of respiratory tract tissue obtained from either normal healthy individuals or from asthma patients. The model was used to evaluate 1 normal donor and 4 asthma donors. The 4 asthma donors each had received different treatments: Advair only; oral and inhaled steroids; no medication; or albuterol only. All tissue samples were cultured in appropriate cell culture media (provided from MatTek) for 24 hrs prior to stimulation. […]

[2] = tested on: patients with uncontrolled asthma; conditions: above-median vs below-median baseline serum periostin; cited from earlier work
[3] = tested on: adults with uncontrolled, severe asthma; assay: Phase 2b study CD-RI-CAT-354-1049 of SC tralokinumab, subgroup analysis by baseline serum periostin; type: in vivo, human; conditions: for Asthma exacerbation rate reduction: tralokinumab 300 mg Q2W vs placebo; for Change from baseline in ACQ-6 / Change from baseline in AQLQ / Percent change from baseline in FEV1: tralokinumab 300 mg Q2W
Experimental: A 5-week screening/run-in period (Week-5 to -1 [Day-1]) preceded randomisation. Starting at Week-4 (Day-28), patients received a fixed-dose combination product of fluticasone/salmeterol, either as an MDI (230 μg/21 μg) at a dose of 2 inhalations twice per day or as a DPI (500 μg/50 μg) at a dose of one inhalation twice per day. If the patient was also taking additional asthma controller medications (including leukotriene modifiers, theophylline, cromones, a secondary ICS, or oral prednisolone ≦20 mg/day or equivalent OCS), then these medications were to be continued at a stable dose during the screening/run-in and treatment period.
Patients were randomised in a 1:1 ratio to one of 2 cohorts (Cohort 1 or Cohort 2).
The median periostin level used in the study to define high periostin was a baseline serum periostin of ≧23 ng/mL (i.e., high periostin) as measured using an immunoassay.
FIGS. 11A-B; TABLE 4. The median periostin level used in the study to define high periostin was a baseline serum periostin of about ≧23 ng/mL (i.e., high periostin) as measured using an immunoassay. For a continuous representation of AER reduction by periostin level and percent change from baseline in pre-bronchodilator FEV, by serum periostin level, see FIG. 10.

[4] = post hoc, 300 mg Q2W, FEV1 reversibility≧12% and serum periostin≧median at baseline

IL-13: 114 amino acid cytokine used to stimulate periostin expression
Periostin levels [1]: increase

lebrikizumab
increases in FEV1 [2]: larger increases in FEV1

tralokinumab
percent change from baseline in pre-bronchodilator FEV1 over time ([3]; 300 mg Q2W group, through to Week 53, (FIG. 11B)): No significant increases in FEV1
percent change from baseline in pre-bronchodilator FEV1 over time ([3]; 300 mg Q2W group, through to Week 53, periostin >=median (FIG. 11A)): Relative increases in FEV1 were observed
percent change from baseline in pre-bronchodilator FEV1 over time ([3]; Q2/4W group, through to Week 53, (FIG. 11B)): No significant increases in FEV1
reduction in serum periostin levels ([3]; patients with baseline serum periostin above the median compared to those below the median): Greater reduction
percentage increase from baseline in pre-bronchodilator FEV1 compared to placebo [3, 4]: 13.85%
reduction in AER [3, 4]: 54%
Asthma exacerbation rate reduction ([3]; Week 53, ITT (N = 150)): 7%
Asthma exacerbation rate reduction ([3]; Week 53, baseline serum Periostin ≧ Median): 25%
Change from baseline in ACQ-6 ([3]; ITT): −0.18
Change from baseline in AQLQ ([3]; ITT): 0.21
Change from baseline in ACQ-6 ([3]; Periostin < Median): −0.02
Change from baseline in AQLQ ([3]; Periostin < Median): 0.21
Change from baseline in ACQ-6 ([3]; Periostin ≧ Median): −0.23
Change from baseline in AQLQ ([3]; Periostin ≧ Median): 0.22
Percent change from baseline in FEV1 ([3]; Week 53, ITT / regardless of serum periostin level): 7.1%
Percent change from baseline in FEV1 ([3]; Week 53, Periostin < Median): 7.06%
Percent change from baseline in FEV1 ([3]; Week 53, Periostin ≧ Median): 6.75% and 6.8%
